Experimental data from US20260306633A1, “A COMBINATION THERAPY FOR CANCER TREATMENT” (Purdue Research Foundation, priority 2023, published 2026).
Like-named read-outs stand apart in the source and are kept apart here.

Experiments:
TNBC BT-549 cells = test: Cell survival / cell inhibition (MTT cell cytotoxicity assay) after 24 h treatment with photosensitizer and/or chemotherapeutic agent, dark or light-irradiated; assay type: cell-based, human; conditions: for viability at 1 µM: high end of 100-1000 nM; for viability at 0.01 µM: low end of 10-100 nM (so in the source)
Experimental: Human mammary epithelial carcinoma cell lines purchased from the American Type Culture Collection BT-549 (ATCC HTB-122) were cultured according to ATCC protocol. BT-549 cells were grown in RPMI 1640 containing 0.023 IU/mL insulin and supplemented with 10% fetal bovine serum (FBS). Cells were grown to 80-90% confluence in 75-cm^2 culture flasks (Corning) for 4-5 days in a humidified incubator (Fisher Scientific Isotemp) with 5% CO2 at 37° C. During the incubation period, growth media was changed once with fresh pre-warmed media (pH 7.2). To harvest the cells, old growth media was aspirated out, and 3 mL 0.25% trypsin solution (Thermo Sci Hyclone) were added. The cells were incubated for 5 minutes, and the cell pellet after centrifugation was resuspended in 3 mL media, broken up gently, then 1 mL of suspended cells was transferred into a new T75 cell culture flask containing pre-warmed media (20 mL) for further culturing.
Cells were grown to confluence in a 96-well plate (9×10^3 cells/well) and co-treated for 24 hours with synthesized photosensitizers (PSs) and chemotherapeutic agents of varying concentrations ranging from 5 nM to 50 μM) in growth media from a stock solution of 10 mM in DMSO (dimethyl sulfoxide, Fisher). After 24-hour treatment, old growth media containing the PSs or compounds were aspirated out and replaced with fresh media. Plates were then positioned below a non-coherent LumaCare LC-122 650 nm light source for 1 minute at an energy fluence rate of 0.96 J/cm^2 and a power of 16 mW/cm^2 (measured using a Newport optical power meter Model 840). Unirradiated cells served as control samples. The following day, cells were washed with pre-warmed PBS, and 11MTT (3-[4,5-dimethyl-thiazol-2-yl]-2.5-diphenyltetrazolium bromide, Sigma, 0.3 mg/mL) in PBS was added to each well. Samples were allowed to incubate for additional 2 hours, after which dark blue crystals formed. DMSO was added to each well and plates were shaken at room temperature for 1 hour to dissolve the purplish-blue formazan crystals. Absorbance values at 570 nm were measured on a microplate reader (BioRad 550). Cell survival was calculated based on the absorbance of the untreated cells alone (as control) and were directly proportional to the number of viable cells in culture. Results were reported as the mean±SD of triplicate measurements.
The unmetallated PS and the indium complexes were used.
Light dose corresponds to an energy fluence rate of 0.96 J/cm^2 used.
Power of 16 mW/cm^2 used.
Cell inhibition in TNBC cells is based on the cell survival (MTT) assay of the binary therapy, blending the effect of PDT and chemotherapeutic agents. […] MePheo serves as a control compound. TNBC cells were then exposed to light after binary treatment for 24 hours.

human TNBC BT-549 cells = test: Fluorescence microscopy (Hoechst 33258) of cell morphology / cell death pathway; assay type: cell-based; conditions: fluorouracil 25 μM, dark (FIG. 18U)
Experimental: Grayscale images of cells stained with Hoechst 33258. Morphology of (A) untreated unirradiated cells, sham control; (B) illuminated cells; (C-E) cells treated with: PSs (InCLA, CBTN, and CPA) and paclitaxel in the dark; (F-H) PSs, followed by 1 minute light exposure; (I) paclitaxel unirradiated; (J-L) PSs and paclitaxel in the dark; (M-O) PSs co-treated with paclitaxel, then light-exposed; (P-Q) PSs co-treated with doxorubicin, then irradiated; (R) PSs and cisplatin, dark; (S-T) PSs and cisplatin, irradiated; (U) fluorouracil, dark; (V) InCLA with fluorouracil in the dark; (W) light-exposed and, (X-Y) PSs with methotrexate with light. Inserts indicate enlarged view. […] Light dose in 1 minute=0.96 J cm^−2; in 30 seconds=0.48 J cm^−2. Concentrations: PSs=50 nM; paclitaxel=50 nM; doxorubicin=500 nM; cisplatin=25 μM; fluororuracil=25 μM; and, methotrexate=500 nM.
Cells (1 mL aliquots) obtained from a diluted cell suspension were seeded into each well (1.7 cm^2, 8×10^3 cells/well) of a 4-well culture slide (BD Biosciences) and grown to confluence in 5% CO2 at 37° C. for 3-4 days for attachment to the substratum. After aspirating the old growth media, 1 mL of the photosensitizer and chemotherapeutic agents (with appropriate concentrations) in fresh pre-warmed media at 37° C. was added to each well. After compound treatment for 24 hours, cells were washed twice with 1 mL fresh growth media, and then irradiated with light using LumaCare LC-122 as described above. Cells were stained in the dark with Hoechst 33258 (Molecular Probes) in pre-warmed media for 10 minutes at 37° C., washed twice with filtered PBS, then fixed with filtered paraformaldehyde for 15 minutes in the incubator. After thorough liquid aspiration, the wells were removed and allowed to air dry in the dark for 1 hour. Slides were protected with coverslips, whose edges were sealed using clear fast-drying nail polish and allowed to dry at room temperature in the dark for 30 minutes. Images were recorded using fluorescence microscopy (DAPI for Hoechst 350-390 nm excitation and 460-490 nm emission filters) using an upright fluorescence microscope with Retiga imaging 2000R (Nikon Optiphot-2, 20× and 40×) and an image processing Nikon NIS-Elements V4.0 Qimaging software.
To determine the preferred cell death pathway for the binary chemophotodynamic therapy, tracking the hallmarks of apoptosis or necrosis was accomplished using a nuclear stain to monitor chromatin condensation and cellular contraction. TNBC cells are spindle-shaped and nearly round with intact cytoplasm, diffused chromatin, distinct cellular membrane, and large oval nuclei staining dark blue with the nuclear stain (FIG. 18A-B).

COc1cccc2c1C(=O)c1c(O)c3c(c(O)c1C2=O)C[C@@](O)(C(=O)CO)C[C@@H]3O[C@H]1C[C@H](N)[C@H](O)[C@H](C)O1 [doxorubicin, reference compound]
viability at 0.5 µM (TNBC BT-549 cells; Homo sapiens, BT-549, 24 h, doxorubicin 500 nM, dark, read-out: cell survival, drug only): 81%
viability at 1 µM (TNBC BT-549 cells; Homo sapiens, BT-549, 24 h, doxorubicin, dark, read-out: cell survival, drug only (end of decrease)): 70%
viability at 0.1 µM (TNBC BT-549 cells; Homo sapiens, BT-549, 24 h, doxorubicin, dark, low end of 100-1000 nM, read-out: cell survival, drug only (start of decrease)): 100%
viability at 1 µM (TNBC BT-549 cells; Homo sapiens, BT-549, 24 h, doxorubicin, light, read-out: cell survival, drug only (end of decrease)): 72%
viability at 0.1 µM (TNBC BT-549 cells; Homo sapiens, BT-549, 24 h, doxorubicin, light, low end of 100-1000 nM, read-out: cell survival, drug only (start of decrease)): 95%
average decrease in cell survival upon light irradiation compared to unirradiated cells, drug only (TNBC BT-549 cells; drug alone, light vs dark): 2-5%

O=c1[nH]cc(F)c(=O)[nH]1 [fluorouracil, 5-Fluorouracil, reference compound]
viability at 25 µM (TNBC BT-549 cells; Homo sapiens, BT-549, 24 h, fluorouracil 25 μM, dark, read-out: cell survival, drug only): 64%
viability at 0.1 µM (TNBC BT-549 cells; Homo sapiens, BT-549, 24 h, fluorouracil, dark, high end of 10-100 nM (so in the source), read-out: cell survival, drug only (end of decrease)): 65%
viability at 0.01 µM (TNBC BT-549 cells; Homo sapiens, BT-549, 24 h, fluorouracil, dark, read-out: cell survival, drug only (start of decrease)): 87%
viability at 0.1 µM (TNBC BT-549 cells; Homo sapiens, BT-549, 24 h, fluorouracil, light, high end of 10-100 nM (so in the source), read-out: cell survival, drug only (end of decrease)): 68%
viability at 0.01 µM (TNBC BT-549 cells; Homo sapiens, BT-549, 24 h, fluorouracil, light, read-out: cell survival, drug only (start of decrease)): 85%
average decrease in cell survival upon light irradiation compared to unirradiated cells, drug only (TNBC BT-549 cells; drug alone, light vs dark): 9%
cell morphology, fluorouracil, dark (human TNBC BT-549 cells): did not affect the cellular morphology

CN(Cc1cnc2nc(N)nc(N)c2n1)c1ccc(C(=O)N[C@@H](CCC(=O)O)C(=O)O)cc1 [methotrexate, reference compound]
viability at 0.5 µM (TNBC BT-549 cells; Homo sapiens, BT-549, 24 h, methotrexate 500 nM, dark, read-out: cell survival, drug only): 78%
viability at 1 µM (TNBC BT-549 cells; Homo sapiens, BT-549, 24 h, methotrexate, dark, read-out: cell survival, drug only (end of decrease)): 66%
viability at 0.1 µM (TNBC BT-549 cells; Homo sapiens, BT-549, 24 h, methotrexate, dark, low end of 100-1000 nM, read-out: cell survival, drug only (start of decrease)): 87%
viability at 1 µM (TNBC BT-549 cells; Homo sapiens, BT-549, 24 h, methotrexate, light, read-out: cell survival, drug only (end of decrease)): 66%
viability at 0.1 µM (TNBC BT-549 cells; Homo sapiens, BT-549, 24 h, methotrexate, light, low end of 100-1000 nM, read-out: cell survival, drug only (start of decrease)): 93%
average increase in cell survival upon light irradiation compared to unirradiated cells, drug only (TNBC BT-549 cells; drug alone, light vs dark): 6%
